Experimental findings from PMC8944797, “Novel Antimicrobial Peptides Designed Using a Recurrent Neural Network Reduce Mortality in Experimental Sepsis” (Antibiotics, 2022) are described below.

Experiment [1] deals with carbapenem-resistant isolates of Klebsiella aerogenes. Kind of experiment: MIC, broth dilution method (EUCAST). The class given is cell-based. Particulars: median (first and third quartile) over n = 12 isolates; Mueller-Hinton broth, 37 °C, 18–20 h; range tested 0 to 32 μg/mL. The procedure:
(§1) The strains of bacteria were isolated in 2021 from patients in the intensive care unit of the Stavropol State Regional Clinical Hospital. Identification and determination of antibiotic resistance of bacterial isolates were carried out using the disk diffusion method as part of a routine microbiological study in accordance with the European Committee on Antimicrobial Susceptibility Testing (EUCAST) protocols in the Department of Clinical Microbiology of the Center of Clinical Pharmacology and Pharmacotherapy.
(§2) The study of the antimicrobial activity of the synthesized peptides was performed by the standard broth dilution method according to the EUCAST guidelines. Briefly, pure bacterial cultures were cultured on a solid nutrient media (mannitol salt agar, BioMedia, Russia). From a fresh morning culture, we prepared a suspension in sterile saline corresponding to a McFarland turbidity standard of 0.5 (which is equivalent to 1–2 × 10^8 CFU/mL). The resulting suspension was dissolved in the BBL^TM Mueller-Hinton broth (Becton, Dickinson and Company, Franklin Lakes, NJ, USA) to obtain an inoculum with an approximate concentration of 5 × 10^5 CFU/mL. The inoculum (100 μL per well) was added to the wells of a sterile 96-well microtiter plate with a U-shaped bottom (Medpolymer, St. Petersburg, Russia). After that, serial two-fold dilutions of tested peptides (100 μL per well) were added to the wells. There were also sterility control wells (Mueller-Hinton broth only, without bacteria) and growth control wells (bacterial inoculum without peptides). Then, the plates were incubated in a thermostat at 37 °C. […] The MIC was taken as the minimum peptide concentration at which there was no visual growth in the corresponding well [26]. The peptides were dissolved in the Mueller–Hinton broth. The experiments with each peptide and bacterial isolate were performed in triplicate (in different plates). MIC values were calculated as median values of three independent replicates (calculations are presented in Supplementary Tables S1–S3).
(§3) Calculations of MICs (median, first, and third quartile) were performed in Microsoft Excel (Supplementary Tables S1–S3). Survival analysis by the Kaplan–Meier method and log-rank (Mantel–Cox) test was performed using GraphPad Prism version 9.2.0 for macOS (GraphPad Software, San Diego, CA, USA, www.graphpad.com, accessed on 29 January 2022).
On the technique in general: Broth dilution looks for growth in wells or tubes with falling amounts of substance.

Experiment [2] has as its system carbapenem-resistant isolates of Pseudomonas aeruginosa. Kind of experiment: MIC, broth dilution method (EUCAST). The format is cell-based. The following applies: median (first and third quartile) over n = 17 isolates; Mueller-Hinton broth, 37 °C, 18–20 h; range tested 0 to 32 μg/mL. The procedure:
as §1, §2, §3

The subject of experiment [3] is K. pneumoniae-induced sepsis. The experiment can be described thus: murine experimental model of K. pneumoniae-induced sepsis, survival. The format is in vivo, ICR (CD-1) mice. The following applies: for Survival proportions: single i.p. 100 μg dose, n=12. As for the experimental part: To assess the effectiveness of the studied peptides, a murine model of lethal generalized infection was used. The model of sepsis makes it possible to perform a simple and rapid screening assessment of the effectiveness of new antimicrobial agents in vivo [22, 28].
The ICR (CD-1) laboratory mice (females with an average weight of 30 g) were maintained in the vivarium of the Stavropol State Medical University. The mice (four animals per cage) were housed in temperature-controlled rooms at 24 °C and 50–60% humidity with a 12 h/12 h light/dark cycle and water and food availability ad libitum.
The animals were injected with bacterial suspensions of one of the carbapenem-resistant isolates of K. pneumoniae (isolate #7, Supplementary Table S2) prepared from a fresh morning culture in accordance with the McFarland turbidity standard of 15 (which corresponds to an approximate concentration of 4.5 × 10^9 CFU/mL). To determine the turbidity of the suspension, a DEN-1 densitometer (Biosan, Latvia) was used.
At t = 0 min, all animals were infected with K. pneumoniae: 150 μL of a 4.5 × 10^9 CFU/mL suspension (approx. 6.75 × 10^8 CFU per mice). 30 min after infection, the mice received a single injection of peptides at a dose of 100 μg. Mortality was assessed every 24 h for 5 days. Moribund animals were killed humanely to avoid unnecessary distress.
as §3

The subject of experiment [4] is carbapenem-resistant isolates of K. pneumoniae. Kind of experiment: MIC, broth dilution method (EUCAST). Particulars: median (first and third quartile) over n = 18 isolates; Mueller-Hinton broth, 37 °C, 18–20 h; range tested 0 to 32 μg/mL. The class given is cell-based, Klebsiella pneumoniae. The procedure:
as §1
as §2, with “S1–S3). […]” for “S1–S3).”

For the sequence “GIFSKLAGKKIKNLLISGLKNIGKEVGM [PEP-36, synthesized LSTM RNN-generated peptide]”, the MIC result in experiment [1], in experiment [2] and in experiment [4] was “not active” each time. Further, the Survival proportions is 91,7% in experiment [3] (day 1 after infecting), 75% in experiment [3] (day 2 after infecting) and 66,7% in experiment [3] (day 3 after infecting). For the same sequence, in experiment [3] (single intraperitoneal 100 μg dose 30 min after infection with 6.75 × 10^8 CFU K. pneumoniae, 5 days, n = 12 mice), the “survival proportion by the end of the observation period” value is on record as 66.7%.

With “GILSSFKGVLKGAGKNLLGSLKDKLKN [PEP-174, synthesized LSTM RNN-generated peptide; probably printed as PEP-134 in b33]”, the MIC entry in experiment [1], in experiment [2] and in experiment [4] was “not active” in each case.

For “KWKLFKKIWSSVKLKS [PEP-136, synthesized LSTM RNN-generated peptide]”, the MIC entry in experiment [1], in experiment [2] and in experiment [4] was “not active” throughout.
